From US9958436B2, “Determination of cell chirality” (THE TRUSTEES OF COLUMBIA UNIVERSITY IN THE CITY OF NEW YORK, priority 2011, dated 2018)
“Also recorded” adds a separate entry of the source.

Tests used:
C2C12 cells [1] = experiment: Effects of culture conditions (substrate protein coating, calcium chelator) on cell chirality; type: cell-based, mouse; conditions: count of rings
Protocol: An adhesive SAM octadecanethiol (Sigma) was transferred onto the gold-coated (150 Å in thickness) glass slide with the PDMS stamp (see e.g., FIG. 1) (L. Q. Wan et al., Integr Biol (Camb) 2, 346 (Aug. 10, 2010)). The slide was then immersed in a non-adhesive ethylene glycol-terminated SAM (HS-(CH2)11-EG3, Prochimia, Poland) for 3 hours. Finally, patterned surfaces were washed with ethanol and coated with 10 μg/ml fibronectin (Sigma) for 30 minutes.
(§1) Cells were maintained in tissue flasks with culture media specified in TABLE 2. After reaching 70% confluency, cells were trypsinized and seeded onto protein-coated patterned surfaces. Once the cells attached, extra cells were washed off with fresh medium. At this time drugs were added into the culture medium if necessary. Phase contrast images were taken after overnight incubation at 37° C. and 5% CO2 when cells reached confluency on the ring patterns.
(§2) High-resolution phase contrast images of live patterned cells were taken at a resolution of ˜0.645 μm/pixel, and analyzed using a custom-written code in MatLab (MathWorks, Natick, Mass.), based on the automated detection of intensity gradient and circular statistics (W. J. Karlon et al., Ann Biomed Eng 27, 712 (November-December, 1999)). In this algorithm, the intensity gradient was determined pixel by pixel with a Gaussian differential filter. In each sub-region of the image, the dominant local direction was determined using an accumulator scheme, in which the orientation of each pixel follows a von Mises distribution, a circular analogue of the linear normal distribution. Subsequently, the orientation in each sub-region was converted into an angle bias based on its deviation from the circumferential direction (see e.g., FIG. 2C). Mean angle and standard deviation of LR asymmetry were calculated for all sub-regions, using circular statistics (N. I. Fish, Statistical Analysis of Circular Data. (Cambridge University Press, Cambridge, UK, 1993)). […] The sub-region size was therefore set to 20 by 20 pixels (i.e., 13 by 13 μm).
(§3) Cell chirality on ring patterns (i.e., clockwise or counterclockwise alignment) was determined from calculated biased angles in local regions with one sample test for the mean angle, analogous to the one sample t-test in linear statistics (N. I. Fish, Statistical Analysis of Circular Data. (Cambridge University Press, Cambridge, UK, 1993)).
The geometric boundaries determined organelle positioning (i.e., x-axis), with centrosomes (bright green, see e.g., FIG. 4B) and Golgi apparatus (red, see e.g., FIG. 4C) being positioned closer to the boundaries than the cell nucleus (blue) (R. A. Desai, L. Gao, S. Raghavan, W. F. Liu, C. S. Chen, J Cell Sci 122, 905 (Apr. 1, 2009)), independent of the gravitational direction. In addition, cell chirality was maintained on patterns with different surface chemistry, and after the disruption of cadherin function (see e.g., FIG. 1, TABLE 6, TABLE 7).

C2C12 cells [2] = experiment: Cell chirality (alignment) on micropatterned rings, drug treatment, C2C12; type: cell-based, mouse; conditions: for CCW: counter-clockwise alignment / CW: clockwise alignment / N/S: not significantly biased to CW or CCW: C2C12 on ring patterns, count of rings
Protocol: as §1
(§4) To examine the role of actin in left-right (LR) asymmetry, cells were tested with 20-500 nM Latrunculin A, 0.05-1.0 μg/ml Cytochalasin D, and 1-100 nM Jasplakinolide. Latrunculin A inhibits actin polymerization by forming a 1:1 molar complex with G-actin, thereby inhibiting its ability to polymerize into F-actin (M. Coue, S. L. Brenner, I. Spector, E. D. Korn, FEBS Lett 213, 316 (Mar. 23, 1987)). Cytochalasin D inhibits actin polymerization by binding to the growing ends of F-actin chains and thus preventing the attachment and addition of G-actin monomers (J. A. Cooper, J Cell Biol 105, 1473 (October, 1987)). Jasplakinolide is known to bind to and stabilize actin filaments in vitro (M. R. Bubb, I. Spector, B. B. Beyer, K. M. Fosen, J Biol Chem 275, 5163 (Feb. 18, 2000)).
(§5) To examine the role of microtubules in LR asymmetry, 0.2-2 μM Nocodazole, and 0.3-30 nM Taxol were used. Nocodazole suppresses microtubule dynamics by destabilizing and disassembling microtubules (J. A. Cooper, J Cell Biol 105, 1473 (October, 1987)). Taxol inhibits the microtubule depolymerization and stabilizes microtubules (W. B. Derry, L. Wilson, M. A. Jordan, Biochemistry 34, 2203 (Feb. 21, 1995)).
To examine the role of the actomyosin motor, cells were tested with […], […], and 0.5-10 […]. Y-27632 works as a selective inhibitor to prevent the phosphorylation of the myosin regulatory light chain (T. Ishizaki et al., Mol Pharmacol 57, 976 (May, 2000)). ML-7 acts as a selective inhibitor of the myosin light chain kinase (M. Isemura, T. Mita, K. Satoh, K. Narumi, M. Motomiya, Cell Biol Int Rep 15, 965 (October, 1991)). Blebbistatin forms a low actin affinity complex through binding to myosin heads, causing the inhibition of nonmuscle myosin II ATPase activity (M. Kovacs, J. Toth, C. Hetenyi, A. Malnasi-Csizmadia, J. R. Sellers, J Biol Chem 279, 35557 (Aug. 20, 2004)).
as §2, §3

C2C12 cells [3] = experiment: Analysis of cell migration on ring patterns (time-lapse, digital image correlation); type: cell-based, mouse; conditions: C2C12 treated
Protocol: For time-lapse videos, cells were patterned on a gold-coated glass-bottom Petri dish (ibid, München, Germany). After cells attached, the dish was transferred into an environmental chamber (37° C. and 5% CO2) and image time series were recorded every 5 minutes at a resolution of 1.56 μm/pixel for a total time of 20-40 hours. As the image capture rate is much higher than the characteristic time for cell migration, digital image correlation, together with sub-pixel displacement estimation, were used to determine the displacements of cell migration. A FFT (fast Fourier transform)-based method was first utilized to match regions of two sequential phase contrast images. The calculated displacement values were then used as inputs for a more accurate estimation of displacement fields at a sub-pixel level, using a second-order image correlation algorithm described previously (P. Zhou, K. E. Goodson, Opt Eng 40, 1613 (August, 2001)). To evaluate the bias of cell migration, the obtained velocity field was further projected in the circumferential (Vθ) and radial (Vr) direction.

hUVEC cells = experiment: Cell chirality (alignment) on micropatterned rings, drug treatment, hUVEC; type: cell-based, human; conditions: hUVEC on ring patterns, count of rings
Protocol: as §1, §4, §5, §2, §3

C2C12 cells [4] = experiment: Cell polarization by organelle positioning relative to ring boundaries (immunofluorescence); type: cell-based, mouse; conditions: C2C12 on rings; centrosome vs nucleus position
Protocol: After imaging, cells were fixed with 4% formaldehyde in cytoskeletal buffer (10 mM MES, 138 mM KCl, 3 mM MgCl2, 2 mM EGTA, and 0.32 M sucrose) for 25 minutes. For actin/tubulin double staining, the cells were incubated with phalloidin-TRITC (1:400; Invitrogen) and anti-Tubulin-FITC (1:50; Sigma) for 1 hour. For the Golgi apparatus positioning inside patterned rings, the cells were incubated in 1 μg/ml anti-human golgin-97 (Invitrogen) for 1 hour. After secondary antibodies, cell nuclei were stained with 200 ng/ml 40, 6-diamidino-2-phenylindole (DAPI; Sigma) for 10 minutes. Finally, the cells were mounted with Fluoromount-G medium (SouthernBiotech, Birmingham, Ala.).

skin tumor cancer cells = experiment: Cell chirality on patterned substrates, skin tumor cancer cells, actin interfering reagent; type: cell-based, human; conditions: count of patterns
Protocol: as §2, §3
Experiments were conducted to determine whether cancer cell chirality depends on actin function. Skin cancer cells were treated with actin interfering reagent Lantrunculin A at 0 nM (control), 20 nM, 50 nM, 100 nM, or 200 nM.

[5] = calcium chelator added to culture, 0.5 mM
[6] = calcium chelator added to culture, 2 mM
[7] = substrate protein coating of the pattern

Molecule: O=C(O)CN(CCOCCOCCN(CC(=O)O)CC(=O)O)CC(=O)O [EGTA]
- CCW: counter-clockwise alignment (C2C12 cells [1]; [5]): 24
- CW: clockwise alignment (C2C12 cells [1]; [5]): 0
- N/S: not significantly biased to CW or CCW (C2C12 cells [1]; [5]): 2
- CCW: counter-clockwise alignment (C2C12 cells [1]; [6]): 12
- CW: clockwise alignment (C2C12 cells [1]; [6]): 1
- N/S: not significantly biased to CW or CCW (C2C12 cells [1]; [6]): 3

Molecule: C/C1=C/C(=O)O[C@@H]2C[C@@H](CC[C@H](C)/C=C\C=C\CC1)O[C@@](O)([C@@H]1CSC(=O)N1)C2 [Latrunculin A]
- CCW: counter-clockwise alignment (C2C12 cells [2]; drug 50 nM): 2
- CW: clockwise alignment (C2C12 cells [2]; drug 50 nM): 61
- N/S: not significantly biased to CW or CCW (C2C12 cells [2]; drug 50 nM): 15
- CCW: counter-clockwise alignment (C2C12 cells [2]; drug 200 nM): 0
- CW: clockwise alignment (C2C12 cells [2]; drug 200 nM): 57
- N/S: not significantly biased to CW or CCW (C2C12 cells [2]; drug 200 nM): 7
- CCW: counter-clockwise alignment (C2C12 cells [2]; drug 500 nM): 0
- CW: clockwise alignment (C2C12 cells [2]; drug 500 nM): 1
- N/S: not significantly biased to CW or CCW (C2C12 cells [2]; drug 500 nM): 10
- effect on chirality of C2C12 cells (C2C12 cells [2]; low concentrations of the actin treadmilling inhibitors): reversed the chirality of C2C12 cells from CCW into CW
- direction of cell migration at the boundaries (C2C12 cells [3]; versus untreated): reversal at the boundaries
- cell migration velocity at the ring boundaries (C2C12 cells [3]; CW along the outer ring and CCW along the inner ring): 15 μm/hr
- CCW: counter-clockwise alignment (hUVEC cells; drug 20 nM): 0
- CW: clockwise alignment (hUVEC cells; drug 20 nM): 36
- N/S: not significantly biased to CW or CCW (hUVEC cells; drug 20 nM): 8
- CCW: counter-clockwise alignment (hUVEC cells; drug 50 nM): 0
- CW: clockwise alignment (hUVEC cells; drug 50 nM): 2
- N/S: not significantly biased to CW or CCW (hUVEC cells; drug 50 nM): 19
- CCW: counter-clockwise alignment (hUVEC cells; drug 200 nM): 5
- CW: clockwise alignment (hUVEC cells; drug 200 nM): 2
- N/S: not significantly biased to CW or CCW (hUVEC cells; drug 200 nM): 56
- CCW: counter-clockwise alignment (hUVEC cells; drug 500 nM): 1
- CW: clockwise alignment (hUVEC cells; drug 500 nM): 2
- N/S: not significantly biased to CW or CCW (hUVEC cells; drug 500 nM): 42
- effect on cell polarization (organelle positioning relative to boundaries) (C2C12 cells [4]): did not alter cell polarization; also recorded: does not change the polarity of C2C12 cells
- CCW: counter-clockwise alignment (skin tumor cancer cells; 20 nM): 0
- CW: clockwise alignment (skin tumor cancer cells; 20 nM): 21
- N/S: not significantly biased to CW or CCW (skin tumor cancer cells; 20 nM): 4
- CCW: counter-clockwise alignment (skin tumor cancer cells; 50 nM): 1
- CW: clockwise alignment (skin tumor cancer cells; 50 nM): 28
- N/S: not significantly biased to CW or CCW (skin tumor cancer cells; 50 nM): 2
- CCW: counter-clockwise alignment (skin tumor cancer cells; 100 nM): 0
- CW: clockwise alignment (skin tumor cancer cells; 100 nM): 32
- N/S: not significantly biased to CW or CCW (skin tumor cancer cells; 100 nM): 0
- CCW: counter-clockwise alignment (skin tumor cancer cells; 200 nM): 2
- CW: clockwise alignment (skin tumor cancer cells; 200 nM): 8
- N/S: not significantly biased to CW or CCW (skin tumor cancer cells; 200 nM): 3

Molecule: Fibronectin
- CCW: counter-clockwise alignment (C2C12 cells [1]; [7]): 32
- CW: clockwise alignment (C2C12 cells [1]; [7]): 1
- N/S: not significantly biased to CW or CCW (C2C12 cells [1]; [7]): 4

Molecule: Laminin
- CCW: counter-clockwise alignment (C2C12 cells [1]; [7]): 34
- CW: clockwise alignment (C2C12 cells [1]; [7]): 2
- N/S: not significantly biased to CW or CCW (C2C12 cells [1]; [7]): 2
